{"source": "patent US12528821B2", "about": "“pH-dependent composition matters useful for study and diagnosis of alzheimer's disease” (Purdue Research Foundation, priority 2019, dated 2026)", "key": {"[1]": {"experiment": "pH-sensitivity: fluorescence intensity at various pH conditions", "assay_type": "physicochemical", "experimental": "The cell culture medium was treated with dilute HCl and NaOH solutions to obtain different solutions with pH of 1.0 to 9.0 for the assay. […] Different dilutions for each pH condition was prepared at concentrations of 0.5, 1.0, 2.0, and 5.0 μM in a 96-well plate."}, "[2]": {"tested_on": "microglia and astrocytes in rat hippocampal tissue sections", "experiment": "Phagocytosis assay in rat hippocampal tissue slices (in situ)", "conditions": "IBA1+ and GFAP+ staining"}, "[3]": {"tested_on": "HMC3, BV2, and N9 microglial cells", "experiment": "Confocal imaging of actin filaments and nuclei in paraformaldehyde-fixed phagocytic microglial cells", "assay_type": "cell-based, human, mouse", "conditions": "5.0 μM for 2 hours, fixed with 4% paraformaldehyde", "experimental": "Fixation of cells and using target protein markers along with hAβ^pH can inform us about the molecular mechanisms involved in microglial phagocytosis with confocal microscopy. To confirm that the hAβ^pH reporter can maintain its fluorescence in fixed cells, HMC3, BV2, and N9 microglial cells were fixed with common cell staining reagents. The cells were treated with 5.0 μM of hAβ^pH for 2 hours and fixed with 4% paraformaldehyde followed by the addition of the phalloidin dye to visualize cellular integrity via the staining of the F-actin filaments (FIG. 5).\nFor labeling the cells with Phalloidin and DAPI, 20,000 cells/250 μL were plated in 14 mm microwells of the 35 mm glass bottom dishes (MatTek #P35G-1.5-14-C) and kept overnight. The cells were treated with 5.0 μM hAβ^pH for 2 hours on the next day. Then the medium was aspirated, and cells were fixed with 4% paraformaldehyde for 20 mins, and then gently washed once with PBS. Phalloidin-iFluor 555 reagent was diluted at a concentration of 1 μL/mL in PBS and added to the fixed cells for 10 minutes for staining the actin filaments. To label the nuclei, DAPI was diluted at a concentration of 1 μL/mL. […] Fluorescence images of phagocytic microglial cells were captured using 40× and 60× objectives on the Nikon AR-1 MP confocal laser microscope. […]"}, "[4]": {"tested_on": "microglia and astrocytes in the cerebral cortex", "experiment": "In vivo two-photon imaging of the barrel cortex through a cranial window after topical application", "design": "species or system mouse"}, "[5]": {"tested_on": "primary immunopanned rat astrocytes", "experiment": "Uptake by primary immunopanned astrocytes in serum-free conditions", "assay_type": "cell-based", "conditions": "fixed, GFAP stained"}, "[6]": {"tested_on": "HMC3, N9, and BV2 cells", "experiment": "Confocal imaging of intracellular acidic organelles (LysoTracker) in fixed phagocytic microglial cells", "assay_type": "cell-based, human, mouse", "conditions": "5.0 μM, 2-hour time point", "description": "To visualize the localization of the hAβ^pH within the microglial cell cytoplasm, the acidic intracellular compartments were labeled with LysoTracker™ DND-99 that stains the lysosomal organelles of the cells. […] It has been recently shown that microglia in vitro recognize and phagocytose Aβ peptides through scavenger receptors,^8 Toll-Like Receptor 2 (TLR2),^17 Cluster of Differentiation 14 (CD14),^18 and Triggering Receptors Expressed on Myeloid Cells 2 (TREM2).^19 Thus, our hAβ^pH reporter serves as a valuable chemical tool in delineating the role of several receptor proteins involved in the Aβ uptake of live and fixed microglial cells using cell staining reagents and by using specific antibodies such as anti-CD14, anti-TREM2, etc. Additionally, the role of inflammation, including the effects of inflammatory cytokines, such as IL-la and TNF-α, on Aβ clearance is not resolved. Thus, our hAβ^pH will be a valuable for studying hAβ^pH phagocytosis under the influence of inflammatory cytokines or small molecule inhibitors.\nLysoTracker® Red DND-99 was used for labeling the intracellular organelles of the cells to observe localization of hAβ^pH sensors inside the cells after phagocytosis. […] Fluorescence images of phagocytic microglial cells were captured using 40× and 60× objectives on the Nikon AR-1 MP confocal laser microscope. […]"}, "[7]": {"tested_on": "HMC3 cells", "experiment": "Phagocytosis assay with live cells (IncuCyte live-cell imaging)", "assay_type": "cell-based, human", "experimental": "(§1) To visualize the phagocytosis of hAβ^pH in live microglial cells, immortalized human microglial clone 3 (HMC3) cells and mouse BV2 and N9 microglial cells were treated with 0.1-5.0 μM doses of hAβ^pH and live-cell images were acquired every 30 minutes for 24 hours on the IncuCyte™ ZOOM Live Content Imaging system (FIGS. 3A-3B). The green channel on the IncuCyte™ ZOOM system allows for excitation and emission wavelengths of 460/524 nm and thus the hAβ^pH reporter was optimal for use on the instrument.\nCells were seeded at 5000 cells per well (200 μL per well) in a 96-well flat bottom plate (Falcon) for approximately 16 hours (overnight). The lyophilized hAβ^pH conjugate was dissolved in the culture medium for each cell type and filtered using 0.22 μm syringe filter. The adherent cells (BV2, N9, HMC3) were treated with a final concentration of hAβ^pH at 0, 0.1, 0.5, 1.0, 2.0, and 5.0 μM by replacing one-half of the culture medium (100 μL) with 2× concentration. Two technical replicates were used for each treatment concentration. […] The fluorescence intensity, cell confluence, and the integrated fluorescence intensity data was obtained and analyzed using the GraphPad Prism® software. The total hAβ^pH phagocytosis per concentration was calculated as: […]"}, "[8]": {"tested_on": "retinal IBA1+ microglia and GFAP+ astrocytes", "experiment": "Subretinal injection, in vivo uptake by retinal microglia and astrocytes", "conditions": "rat"}, "[9]": {"tested_on": "primary mouse microglia", "experiment": "Phagocytic uptake by primary microglia ex vivo (confocal, flow cytometry)", "assay_type": "cell-based"}, "[10]": {"tested_on": "cortical IBA1+ microglia and GFAP+ astrocytes", "experiment": "Stereotaxic microinjection in the somatosensory cortex, staining of fixed tissue sections", "assay_type": "in vivo, mouse"}, "[11]": {"tested_on": "BV2 microglial cells", "experiment": "Phagocytosis assay with live cells (IncuCyte live-cell imaging)", "assay_type": "cell-based, mouse", "experimental": "Cells were seeded at 5000 cells per well (200 μL per well) in a 96-well flat bottom plate (Falcon) for approximately 16 hours (overnight). […] Two technical replicates were used for each treatment concentration. The plates were immediately placed in the IncuCyte® S3 Live-Cell Analysis System (Essen BioScience) and four images per well were captured at 30-minute time intervals for 24 hours. The fluorescence intensity, cell confluence, and the integrated fluorescence intensity data was obtained and analyzed using the GraphPad Prism® software.\nFlow Cytometry Analysis of BV-2 Microglia Phagocytosis"}, "[12]": {"tested_on": "BV2 microglial cells", "experiment": "Flow cytometry analysis of BV-2 microglia phagocytosis", "assay_type": "cell-based, mouse", "conditions": "0.5 and 1.0 μM for 1 hour", "experimental": "BV2 microglial cells were seeded at a density of 250 k cells/well in a 6-well plate for around 14 hr overnight. […] After 2 hours, the plate was brought to the hood, placed on ice to stop phagocytosis, and cell culture medium containing hAβ^pH was aspirated. The cells were washed once with cold PBS. Next, the cells were treated with ice cold PBS with 2 mM EDTA for 2 mins on ice to initiate detachment of the cells from the wells. The cells were fully detached from the wells with very gentle pipetting and transferred into falcon tubes. The cells were centrifuged once at 1400 RPM for 3 mins. The PBS/EDTA supernatant was aspirated out and the cell pellets were re-suspended in FACS buffer (PBS, 25 mM HEPES, 2 mM EDTA, and 2% FBS). Five minutes before analysis of each sample tube, Propidium Iodide (PI) was added to the sample (40 ng/1 mL cell suspension) for staining of live/dead cells. […] The filed were then analyzed on FlowJo V10 software. Gating strategy is indicated in FIG. 4 on the main manuscript."}, "[13]": {"experiment": "Atomic Force Microscopy analysis of aggregation", "assay_type": "physicochemical", "conditions": "compared with non-conjugated Aβ1-42", "experimental": "AFM sample preparation: The manufacturer's protocol was followed for sample preparation, image acquiring and analysis.\n1 mM Aβ solution was prepared by adding HFIP directly to the vial (0.5 mg Aβ or hAβ^pH or recombinant Aβ(M1-42) in 93.35 μL HFIP). The peptide should be completely dissolved. The solution was incubated at room temperature (RT) for at least 30 min. HFIP was allowed to evaporate in the open tubes overnight in the fume hood or using Argon/Nitrogen gas and then dry down under high vacuum for 1 h without heating to remove any remaining traces of HFIP and moisture. The resulting peptide thin clear film formed at the bottom of the tubes. The tubes containing dried peptides were stored at −20° C. until further use.\nPrior to use, tube containing peptide film was allowed to come to RT. Then, 5 mM Aβ DMSO stock was prepared by adding 20 μL fresh dry DMSO to 0.45 mg. Pipette thoroughly, scraping down the sides of the tube near the bottom to ensure complete resuspension of peptide film. Vortex well (˜30 sec) and pulse in a microcentrifuge to collect solution at the bottom of the tube. Sonicate 5 mM Aβ DMSO solution for 10 min. Use this preparation as the starting material for unaggregated Aβ and oligomeric Aβ. For oligomer formation, samples were incubated at 4° C. for 24 hr.\nSample preparation was done with proper sterile technique with sterile media and MilliQ-water. […]"}, "[14]": {"tested_on": "N9 microglial cells", "experiment": "Phagocytosis assay with live cells (IncuCyte live-cell imaging)", "assay_type": "cell-based, mouse", "experimental": "as §1\nCells were seeded at 5000 cells per well (200 μL per well) in a 96-well flat bottom plate (Falcon) for approximately 16 hours (overnight). The lyophilized hAβ^pH conjugate was dissolved in the culture medium for each cell type and filtered using 0.22 μm syringe filter. The adherent cells (BV2, N9, HMC3) were treated with a final concentration of hAβ^pH at 0, 0.1, 0.5, 1.0, 2.0, and 5.0 μM by replacing one-half of the culture medium (100 μL) with 2× concentration. Two technical replicates were used for each treatment concentration. The plates were immediately placed in the IncuCyte® S3 Live-Cell Analysis System (Essen BioScience) and four images per well were captured at 30-minute time intervals for 24 hours. The fluorescence intensity, cell confluence, and the integrated fluorescence intensity data was obtained and analyzed using the GraphPad Prism® software. The total hAβ^pH phagocytosis per concentration was calculated as:\n[formula] wherein, Total Integrated Intensity is defined as the total sum of hAβ^pH's fluorescent intensity in the image and Relative Total Integrated Intensity is defined as Total Integrated Intensity (t)—Total Integrated Intensity (t=0) for each concentration. Flow Cytometry Analysis of BV-2 Microglia Phagocytosis"}, "[15]": {"conditions": "P7 mouse, periventricular white matter, 72 h"}}, "data": [{"substance": "hAβ^pH: pH-dependent fluorescent conjugate of human Aβ1-42 peptide linked to amine-reactive Protonex Green 500, SE (PTXG) fluorophore", "values": [{"measurement": "fluorescence intensity at the physiological pH of 7.4", "setting": "[1]; pH 7.4", "result": "did not show an increased fluorescence intensity"}, {"measurement": "phagocytosis in situ", "setting": "[2]", "result": "phagocytosed by both microglia and astrocytes in situ"}, {"measurement": "fluorescence retained in fixed cells (confocal, phalloidin)", "setting": "[3]", "result": "showed green fluorescence"}, {"measurement": "fluorescence in cell somata after topical application", "setting": "[4]; mouse barrel cortex, two-photon imaging", "result": "fluorescence increases in cell somata"}, {"measurement": "colocalization with IBA1, CD68, and GFAP", "setting": "[4]; perfusion-fixed 1.5 to 3 hours after imaging, cortical slices", "result": "most Aβ^pH is taken up by microglia and astrocytes in vivo"}, {"measurement": "phagocytosis by astrocytes", "setting": "[5]", "result": "also phagocytose Aβ^pH"}, {"measurement": "co-localization with LysoTracker dye", "setting": "[6]", "result": "confirmed the presence of hAβ^pH within the acidic phagosomes"}, {"measurement": "phagocytosis", "setting": "[7]; 5.0 μM", "result": "increased phagocytosis"}, {"measurement": "time period of increased intracellular fluorescence", "setting": "[7]; 1.0 and 2.0 μM doses, followed by gradual decrease", "result": "1 to 8", "unit": "h"}, {"measurement": "fluorescence in retinal astrocytes (quantification)", "setting": "[8]; 3 time points, FIG. 11G", "result": "No fluorescence was detected"}, {"measurement": "phagocytosis by GFAP+ retinal astrocytes in vivo", "setting": "[8]; FIG. 11F", "result": "phagocytose Aβ^pH in vivo"}, {"measurement": "green fluorescence in live (ZV-) cells (flow cytometry)", "setting": "[9]; 0.5, 1.0, and 2.0 μM for 1 hour", "result": "green fluorescence is measured"}, {"measurement": "phagocytosis ex vivo (confocal, LysoTracker Red)", "setting": "[9]; defined, reduced-serum media, fixed cells", "result": "phagocytose Aβ^pH ex vivo"}, {"measurement": "phagocytic uptake at the 24 h timepoint", "setting": "[10]; P7 mouse, periventricular white matter, 24 h", "result": "phagocytic uptake of Aβ^pH by IBA1^+ microglia and GFAP^+ astrocytes"}, {"measurement": "fluorescence in GFAP+ astrocytes at 72 h", "setting": "[10]; [15]", "result": "do not show any green fluorescence"}, {"measurement": "fluorescence in IBA1+ microglia at 72 h", "setting": "[10]; [15]", "result": "bright green fluorescence"}, {"measurement": "fluorescence within microglia vs astrocytes", "setting": "[10]; pia and white matter regions", "result": "more Aβ^pH uptake by microglia compared to astrocytes"}, {"measurement": "intracellular fluorescence during the 18-hour time period", "setting": "[11]; 5.0 μM dose", "result": "increased intracellular fluorescence"}, {"measurement": "intracellular fluorescence (phagocytosis) over time", "setting": "[11]; 1.0 and 2.0 μM doses", "result": "gradual increase in intracellular fluorescence"}, {"measurement": "green fluorescence in live (PI-) cells (flow cytometry)", "setting": "[12]", "result": "green fluorescence is measured"}, {"measurement": "ability to aggregate (AFM)", "setting": "[13]", "result": "aggregate similar to the non-conjugated Aβ"}, {"measurement": "intracellular fluorescence beyond 18 hours", "setting": "[14]; 5.0 μM", "result": "began to decrease"}, {"measurement": "time of peak intracellular green fluorescence", "setting": "[14]; 5.0 μM", "result": "12 to 18", "unit": "h"}, {"measurement": "intracellular fluorescence (phagocytosis) over time", "setting": "[14]; 1.0 and 2.0 μM doses", "result": "gradual increase in intracellular fluorescence"}]}, {"substance": "RODO-conjugated hAβ^pH: conjugate of the Aβ1-42 peptide with pHrodo-Red (RODO) fluorophore", "values": [{"measurement": "pH range of increased fluorescence", "setting": "[1]; 0.5, 1.0, 2.0, and 5.0 μM, FIG. 1C", "result": "1.0-7.0"}]}]}
